Data on two compounds can be found in patent US10583178B2, “Compositions comprising sulforaphane or a sulforaphane precursor and a mushroom extract or powder” (NUTRAMAX LABORATORIES, INC., priority 2012, dated 2020).

Assay [1] has as its system broccoli sprout-derived myrosinase. In words: Consumption of glucoraphanin by myrosinase as a function of ascorbic acid concentration. The assay is classed as biochemical. The settings on record: 38° C. As for the experimental part: About 250 mg of broccoli seed extract containing about 12% (w/w) glucoraphanin were subjected to hydrolysis by a fixed concentration of broccoli sprout-derived myrosinase in the presence of variable concentration of ascorbic acid, ranging from 0 to 600 μmoles/Liter. The reaction mixtures were thermostated at 38° C.; aliquots were withdrawn every 15 minutes for 60 minutes, and concentration of glucoraphanin determined chromatographically. The rate of glucoraphanin consumption was interpreted as the rate its conversion to sulforaphane. Graphical representation of glucoraphanin content reduction as a function of increasing ascorbic acid concentration results in a series of linear plots; the slopes of the linear regression lines reflect the rate of glucoraphanin consumption, in moles/minute. It is apparent that in the presence of 600 μmoles/Liter concentration of ascorbic acid, the reaction rate increased 13-fold relative to that which proceeded in the absence of modulatory effects of ascorbic acid.

The subject of the next assay is myrosinase. In words: Conversion of glucoraphanin to sulforaphane in Simulated Intestinal Fluid. It is filed as biochemical, broccoli. The settings on record: 38° C., 0.25 to 1.00 mmol/Liter, especially at earlier stages. On the procedure:
Simulated Intestinal Fluid (SIF) powder, a commercially supplied concentrate closely approximating the human intestinal content in terms of composition, pH and ionic strength, was used. The experiment utilized a USP Dissolution Apparatus 2 (paddles), where into six dissolution vessels 500 mL of Simulated Intestinal Fluid was dispensed, along with 150 mg of freeze-dried broccoli sprout powder as a source of myrosinase. […] Aliquots were withdrawn every 15 minutes, and assayed for sulforaphane.

In assay [2] the test system is Nad(P)H:quinone oxidoreductase 1 (NQO-1) gene expression. As to the kind of experiment: NQO-1 gene expression by quantitative RT-PCR in macrophage cell line RAW 264.7. The assay is classed as cell-based. The settings on record: 0.5 μM SFN, RAW 264.7, 24 hours. As for the experimental part: The following study was conducted to determine the effect of the combination of sulforaphane and a maitake mushroom extract containing 20% β-glucans on gene expression of Nad(P)H:quinone oxidoreductase 1 (NQO-1). NQO-1 encodes a protein that is able to metabolize estrogen quinones, preventing them from forming DNA adducts that cause mutations and ultimately carcinogenesis. An increase in NQO-1 expression is favorable for breast, colon, liver, lung, skin and prostate health.
In the study, the macrophage cell line RAW 264.7 was treated with DMSO (vehicle control), sulforaphane (SFN), maitake mushroom extract having about 20% beta-glucan content (Maitake), or the combination of sulforaphane and maitake mushroom extract, for 24 hours. […] Gene expression of NQO-1 gene expression was analyzed via quantitative RT-PCR. The results, which are depicted in FIG. 5, show the following: […]
In the study, the macrophage cell line RAW 264.7 was treated with DMSO (vehicle control), sulforaphane (SFN), shiitake mushroom extract having at least 20% alpha-glucan content (Shiitake), or the combination of sulforaphane and shiitake mushroom extract, for 24 hours. […] Gene expression of NQO-1 gene expression was analyzed via quantitative RT-PCR. […]

The subject of assay [3] is NAD(P)H:quinone oxidoreductase (NQO1). The note with it: oral administration, mammary epithelium; cited from earlier work.
The next assay deals with heme oxygenase-1 (HO-1). The note with it: oral administration, mammary epithelium; cited from earlier work.

With `O=C1O[C@H]([C@@H](O)CO)C(O)=C1O` [Ascorbic Acid, ascorbic acid], the glucoraphanin content in assay [1] (50 μM ascorbic acid, 0 min) was 93.36 µmol; in assay [1] (50 μM ascorbic acid, 15 min), 89.20 µmol; in assay [1] (50 μM ascorbic acid, 30 min) it was 84.24 µmol; in assay [1] (50 μM ascorbic acid, 45 min), 80.30 µmol; in assay [1] (50 μM ascorbic acid, 60 min), 76.36 µmol; in assay [1] (125 μM ascorbic acid, 0 min) it was 93.36 µmol. Also, the glucoraphanin content in assay [1] (125 μM ascorbic acid, 15 min) came out at 84.52 µmol; in assay [1] (125 μM ascorbic acid, 30 min) it was 75.92 µmol; in assay [1] (125 μM ascorbic acid, 45 min), 68.09 µmol; in assay [1] (125 μM ascorbic acid, 60 min), 59.41 µmol; in assay [1] (250 μM Filtered ascorbic acid, 0 min), 93.36 µmol; in assay [1] (250 μM Filtered ascorbic acid, 15 min), 86.31 µmol. For the same compound, the glucoraphanin content in assay [1] (250 μM Filtered ascorbic acid, 30 min) turned out to be 79.44 µmol; in assay [1] (250 μM Filtered ascorbic acid, 45 min), 71.94 µmol; in assay [1] (250 μM Filtered ascorbic acid, 60 min), 65.18 µmol; in assay [1] (250 μM ascorbic acid, 0 min), 93.36 µmol; in assay [1] (250 μM ascorbic acid, 15 min), 80.95 µmol; in assay [1] (250 μM ascorbic acid, 30 min), 69.06 µmol. Besides, the glucoraphanin content in assay [1] (250 μM ascorbic acid, 45 min) turned out to be 57.63 µmol; in assay [1] (250 μM ascorbic acid, 60 min) it was 45.76 µmol; in assay [1] (400 μM ascorbic acid, 0 min), 93.36 µmol; in assay [1] (400 μM ascorbic acid, 15 min) it was 78.32 µmol; in assay [1] (400 μM ascorbic acid, 30 min) it was 62.78 µmol; in assay [1] (400 μM ascorbic acid, 45 min) it was 47.67 µmol. Also, the glucoraphanin content in assay [1] (400 μM ascorbic acid, 60 min) amounted to 33.15 µmol; in assay [1] (600 μM ascorbic acid, 0 min), 93.36 µmol; in assay [1] (600 μM ascorbic acid, 15 min), 75.02 µmol; in assay [1] (600 μM ascorbic acid, 30 min) it was 55.66 µmol; in assay [1] (600 μM ascorbic acid, 45 min), 37.50 µmol; in assay [1] (600 μM ascorbic acid, 60 min), 22.09 µmol. Moreover, in the assay with myrosinase, the “relation of sulforaphane yield to ascorbic acid concentration” value was “direct correlation”.
For the compound `C[S+]([O-])CCCCN=C=S` (stereo not shown) [SFN, 1-isothiocyanato-4-methylsulfinylbutane], the “Fold Increase in NQO-1 gene expression” value in assay [2] is recorded as 12.96 fold. The “increase in NQO1 enzymatic activity” value in assay [3] is listed as 3 fold. In addition, in the assay with heme oxygenase-1 (HO-1), the “elevated immunostaining of HO-1” value is on record as 4 fold.
